{
  "source": "ChEMBL document CHEMBL4339181",
  "about": "“Kinase and Histone Deacetylase Hybrid Inhibitors for Cancer Therapy” (J Med Chem, 2019)",
  "key": {"[1]": {"experiment": "Toxicity in patient with advanced solid tumor administered as 1 hr iv infusion for 5 consecutive days every 2 weeks", "assay_type": "organism-based", "conditions": "human, in vivo; call rule not given here"}, "[2]": {"experiment": "Toxicity in patient with advanced solid tumor assessed as serum creatinine elevation administered as 1 hr iv infusion for 5 consecutive days every 2 weeks relative to control", "assay_type": "organism-based", "conditions": "human, in vivo"}, "HepG2": {"tested_on": "HepG2", "experiment": "Antitumor activity against human HepG2 cells xenografted in nu/nu CD-1 mouse assessed as tumor regression at 120 mg/kg, iv administered daily relative to control", "assay_type": "functional"}, "[3]": {"experiment": "Toxicity in patient with advanced solid tumor assessed as transient reversible nausea administered as 1 hr iv infusion for 5 consecutive days every 2 weeks relative to control", "assay_type": "organism-based", "conditions": "human, in vivo"}, "[4]": {"experiment": "Toxicity in patient with advanced solid tumor assessed as dry skin administered as 1 hr iv infusion for 5 consecutive days every 2 weeks relative to control", "assay_type": "organism-based", "conditions": "human, in vivo"}, "[5]": {"experiment": "Toxicity in patient with advanced solid tumor assessed as fatigue administered as 1 hr iv infusion for 5 consecutive days every 2 weeks relative to control", "assay_type": "organism-based", "conditions": "human, in vivo"}, "[6]": {"experiment": "Toxicity in patient with advanced solid tumor assessed as serum AST elevation administered as 1 hr iv infusion for 5 consecutive days every 2 weeks relative to control", "assay_type": "organism-based", "conditions": "human, in vivo"}, "Histone deacetylase 8": {"target": "T1, Histone deacetylase 8 (Homo sapiens, UniProt Q9BY41)", "T1 sequence (Q9BY41 whole entry)": "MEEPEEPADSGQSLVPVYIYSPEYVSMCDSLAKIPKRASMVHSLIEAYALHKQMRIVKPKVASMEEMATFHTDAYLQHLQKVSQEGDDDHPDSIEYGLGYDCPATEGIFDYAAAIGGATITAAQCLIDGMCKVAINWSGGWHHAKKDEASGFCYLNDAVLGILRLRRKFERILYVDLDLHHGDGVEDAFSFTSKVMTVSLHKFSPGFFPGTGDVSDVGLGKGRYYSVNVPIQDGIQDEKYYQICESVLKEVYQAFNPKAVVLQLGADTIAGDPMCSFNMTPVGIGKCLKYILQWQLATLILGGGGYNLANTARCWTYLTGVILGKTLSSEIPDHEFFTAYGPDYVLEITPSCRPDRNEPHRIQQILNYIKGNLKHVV", "description": "Inhibition of HDAC8 (unknown origin)"}, "Histone deacetylase 9": {"target": "Histone deacetylase 9 (Homo sapiens, UniProt Q9UKV0)", "sequence (Q9UKV0 whole entry)": "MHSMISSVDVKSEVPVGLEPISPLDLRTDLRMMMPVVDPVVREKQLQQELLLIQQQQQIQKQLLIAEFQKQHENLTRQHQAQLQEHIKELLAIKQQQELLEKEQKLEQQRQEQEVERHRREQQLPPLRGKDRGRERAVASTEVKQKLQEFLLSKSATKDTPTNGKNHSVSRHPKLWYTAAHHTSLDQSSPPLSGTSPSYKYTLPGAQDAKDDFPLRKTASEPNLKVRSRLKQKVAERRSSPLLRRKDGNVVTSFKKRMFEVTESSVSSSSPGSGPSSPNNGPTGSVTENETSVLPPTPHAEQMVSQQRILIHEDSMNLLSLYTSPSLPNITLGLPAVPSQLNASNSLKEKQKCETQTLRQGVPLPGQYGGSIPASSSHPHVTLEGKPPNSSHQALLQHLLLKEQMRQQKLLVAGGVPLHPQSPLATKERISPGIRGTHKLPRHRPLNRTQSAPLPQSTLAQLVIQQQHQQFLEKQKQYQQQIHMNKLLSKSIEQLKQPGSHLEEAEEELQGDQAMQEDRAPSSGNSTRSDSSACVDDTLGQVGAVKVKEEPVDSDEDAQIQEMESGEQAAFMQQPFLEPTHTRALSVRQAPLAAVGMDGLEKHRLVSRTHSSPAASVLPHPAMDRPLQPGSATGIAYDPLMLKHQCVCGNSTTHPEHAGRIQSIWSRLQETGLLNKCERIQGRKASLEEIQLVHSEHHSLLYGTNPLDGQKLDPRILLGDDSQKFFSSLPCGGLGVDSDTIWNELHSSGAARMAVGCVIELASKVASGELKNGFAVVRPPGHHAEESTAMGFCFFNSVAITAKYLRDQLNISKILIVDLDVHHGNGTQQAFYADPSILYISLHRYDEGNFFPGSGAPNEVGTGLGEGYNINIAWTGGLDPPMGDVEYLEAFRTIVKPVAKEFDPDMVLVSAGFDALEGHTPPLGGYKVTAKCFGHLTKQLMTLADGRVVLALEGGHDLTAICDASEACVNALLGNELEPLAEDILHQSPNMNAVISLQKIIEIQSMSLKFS", "experiment": "Inhibition of HDAC9 (unknown origin)"}, "Histone deacetylase 5": {"target": "Histone deacetylase 5 (Homo sapiens, UniProt Q9UQL6)", "sequence (Q9UQL6 whole entry)": "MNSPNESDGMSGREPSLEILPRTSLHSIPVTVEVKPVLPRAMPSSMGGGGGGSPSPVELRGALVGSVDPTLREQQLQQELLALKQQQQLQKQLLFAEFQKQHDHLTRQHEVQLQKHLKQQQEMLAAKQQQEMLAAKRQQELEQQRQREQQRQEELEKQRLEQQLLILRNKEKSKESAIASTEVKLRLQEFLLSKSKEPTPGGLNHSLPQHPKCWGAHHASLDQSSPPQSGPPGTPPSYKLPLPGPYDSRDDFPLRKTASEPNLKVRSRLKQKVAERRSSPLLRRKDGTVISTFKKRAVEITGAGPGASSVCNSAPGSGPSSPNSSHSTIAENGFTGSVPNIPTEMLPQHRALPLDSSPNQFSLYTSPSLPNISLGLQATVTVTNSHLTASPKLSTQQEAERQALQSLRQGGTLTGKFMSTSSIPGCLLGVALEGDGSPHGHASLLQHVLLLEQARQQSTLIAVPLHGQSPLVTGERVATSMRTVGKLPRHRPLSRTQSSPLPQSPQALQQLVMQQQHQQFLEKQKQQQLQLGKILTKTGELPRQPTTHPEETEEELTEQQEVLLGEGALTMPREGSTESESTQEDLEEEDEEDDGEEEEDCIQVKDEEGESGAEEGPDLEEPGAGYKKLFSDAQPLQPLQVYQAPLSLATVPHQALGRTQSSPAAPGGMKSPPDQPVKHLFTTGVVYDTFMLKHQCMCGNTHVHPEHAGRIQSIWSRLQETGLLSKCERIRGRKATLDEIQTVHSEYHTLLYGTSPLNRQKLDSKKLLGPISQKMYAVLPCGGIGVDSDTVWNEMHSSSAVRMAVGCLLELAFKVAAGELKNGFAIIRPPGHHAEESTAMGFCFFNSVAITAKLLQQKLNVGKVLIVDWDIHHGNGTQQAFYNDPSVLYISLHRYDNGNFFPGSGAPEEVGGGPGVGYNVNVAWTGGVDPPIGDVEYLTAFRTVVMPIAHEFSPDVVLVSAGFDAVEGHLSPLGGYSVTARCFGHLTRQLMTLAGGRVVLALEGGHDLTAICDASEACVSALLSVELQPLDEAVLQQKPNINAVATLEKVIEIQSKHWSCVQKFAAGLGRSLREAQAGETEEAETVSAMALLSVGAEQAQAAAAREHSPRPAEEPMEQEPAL", "experiment": "Inhibition of HDAC5 (unknown origin)"}, "[7]": {"target": "T2, Protein deacetylase HDAC6 (Homo sapiens, UniProt Q9UBN7)", "T2 sequence (Q9UBN7 whole entry)": "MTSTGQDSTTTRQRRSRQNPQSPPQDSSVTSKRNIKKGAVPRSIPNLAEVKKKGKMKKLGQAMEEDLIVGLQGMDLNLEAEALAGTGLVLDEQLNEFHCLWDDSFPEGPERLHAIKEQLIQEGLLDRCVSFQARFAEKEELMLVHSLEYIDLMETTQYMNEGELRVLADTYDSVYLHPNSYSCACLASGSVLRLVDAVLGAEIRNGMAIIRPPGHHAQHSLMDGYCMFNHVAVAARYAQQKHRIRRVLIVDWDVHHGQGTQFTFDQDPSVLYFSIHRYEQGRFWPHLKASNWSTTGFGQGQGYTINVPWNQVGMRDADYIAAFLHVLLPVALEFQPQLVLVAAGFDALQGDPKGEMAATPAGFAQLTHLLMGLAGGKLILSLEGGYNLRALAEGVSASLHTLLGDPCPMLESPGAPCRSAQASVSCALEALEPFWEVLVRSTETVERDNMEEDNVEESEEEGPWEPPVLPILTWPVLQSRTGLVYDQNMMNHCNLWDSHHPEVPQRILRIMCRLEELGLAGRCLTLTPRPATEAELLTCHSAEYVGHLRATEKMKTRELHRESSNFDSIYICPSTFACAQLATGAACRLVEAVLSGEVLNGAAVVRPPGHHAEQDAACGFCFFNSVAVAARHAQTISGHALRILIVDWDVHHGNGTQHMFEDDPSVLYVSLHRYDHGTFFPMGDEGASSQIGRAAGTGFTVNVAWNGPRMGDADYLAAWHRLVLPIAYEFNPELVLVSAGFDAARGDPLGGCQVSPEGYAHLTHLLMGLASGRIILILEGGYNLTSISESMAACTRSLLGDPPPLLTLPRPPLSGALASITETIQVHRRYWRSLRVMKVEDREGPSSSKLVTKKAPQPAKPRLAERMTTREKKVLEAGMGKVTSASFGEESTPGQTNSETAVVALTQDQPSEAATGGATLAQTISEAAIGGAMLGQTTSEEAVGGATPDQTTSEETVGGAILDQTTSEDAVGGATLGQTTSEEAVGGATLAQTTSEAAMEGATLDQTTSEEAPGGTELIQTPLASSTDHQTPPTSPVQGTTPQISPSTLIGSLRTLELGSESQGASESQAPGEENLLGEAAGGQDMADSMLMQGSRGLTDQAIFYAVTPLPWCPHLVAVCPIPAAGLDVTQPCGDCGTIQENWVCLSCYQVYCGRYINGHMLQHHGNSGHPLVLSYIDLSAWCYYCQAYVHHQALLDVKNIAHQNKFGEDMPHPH", "description": "Inhibition of HDAC6 (unknown origin)"}},
  "data": [
    {"smiles": "C#Cc1cccc(Nc2ncnc3cc(OC)c(OCCCCCCC(=O)NO)cc23)c1", "note": "[CUDC-101]", "values": [
      {"measurement": "MTD", "setting": "[1]", "value": 275, "unit": "mg/m2"},
      {"measurement": "Activity", "setting": "[2]", "value": 12, "unit": "%"},
      {"measurement": "Activity", "setting": "HepG2", "value": 30, "unit": "%"},
      {"measurement": "Activity", "setting": "[3]", "value": 24, "unit": "%"},
      {"measurement": "Activity", "setting": "[4]", "value": 16, "unit": "%"},
      {"measurement": "Activity", "setting": "[5]", "value": 24, "unit": "%"},
      {"measurement": "Activity", "setting": "[6]", "value": 12, "unit": "%"}
    ]},
    {"smiles": "O=C(CCCCCCC(=O)Nc1ccccc1)NO", "note": "[VORINOSTAT]", "values": [
      {"measurement": "IC50", "setting": "Histone deacetylase 8", "value": "Not Active"},
      {"measurement": "IC50", "setting": "Histone deacetylase 9", "value": "Not Active"},
      {"measurement": "IC50", "setting": "Histone deacetylase 5", "value": "Not Active"},
      {"measurement": "IC50", "setting": "[7]", "value": "Not Active"}
    ]}
  ]
}
